Here are results for five compounds from paper PMC6240891, “Functional Analysis of Four Terpene Synthases in Rose-Scented Pelargonium Cultivars (Pelargonium × hybridum) and Evolution of Scent in the Pelargonium Genus” (Frontiers in Plant Science, 2018).

Assay in all cases: GC-MS product analysis
Holding throughout (assay type): biochemical
Common to all, as to settings: 10 mM MgCl2, 1 mM MnCl2, pH 7.5, 30°C, 2 h

In assay [1] the target is T1, PhEDS (Pelargonium graveolens, UniProt A0A2S1JKY7).
T1 construct: gene EUS; full-length; E. coli Rosetta (DE3) pLysS
T1 sequence (A0A2S1JKY7 1-567): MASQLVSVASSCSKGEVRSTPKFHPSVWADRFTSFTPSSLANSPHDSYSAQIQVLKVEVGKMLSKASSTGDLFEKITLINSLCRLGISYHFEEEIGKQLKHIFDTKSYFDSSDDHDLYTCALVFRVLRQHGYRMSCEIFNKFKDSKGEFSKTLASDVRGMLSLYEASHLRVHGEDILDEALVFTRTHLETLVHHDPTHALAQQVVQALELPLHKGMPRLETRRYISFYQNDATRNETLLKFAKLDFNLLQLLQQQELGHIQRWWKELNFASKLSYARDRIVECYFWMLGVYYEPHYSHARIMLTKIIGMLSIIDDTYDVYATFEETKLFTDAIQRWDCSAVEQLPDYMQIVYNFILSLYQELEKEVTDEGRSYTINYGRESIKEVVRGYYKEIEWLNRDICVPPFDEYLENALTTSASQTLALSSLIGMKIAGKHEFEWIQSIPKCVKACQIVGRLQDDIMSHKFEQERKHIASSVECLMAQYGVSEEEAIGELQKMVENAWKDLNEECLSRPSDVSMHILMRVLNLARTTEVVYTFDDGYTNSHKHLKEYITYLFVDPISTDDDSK

Assay [2] deals with T2, PhMYRS (Pelargonium graveolens, UniProt A0A2S1JKZ8).
T2 construct: gene MYRS; full-length (predicted plastid-targeted); E. coli Rosetta (DE3) pLysS
T2 sequence (A0A2S1JKZ8 1-606): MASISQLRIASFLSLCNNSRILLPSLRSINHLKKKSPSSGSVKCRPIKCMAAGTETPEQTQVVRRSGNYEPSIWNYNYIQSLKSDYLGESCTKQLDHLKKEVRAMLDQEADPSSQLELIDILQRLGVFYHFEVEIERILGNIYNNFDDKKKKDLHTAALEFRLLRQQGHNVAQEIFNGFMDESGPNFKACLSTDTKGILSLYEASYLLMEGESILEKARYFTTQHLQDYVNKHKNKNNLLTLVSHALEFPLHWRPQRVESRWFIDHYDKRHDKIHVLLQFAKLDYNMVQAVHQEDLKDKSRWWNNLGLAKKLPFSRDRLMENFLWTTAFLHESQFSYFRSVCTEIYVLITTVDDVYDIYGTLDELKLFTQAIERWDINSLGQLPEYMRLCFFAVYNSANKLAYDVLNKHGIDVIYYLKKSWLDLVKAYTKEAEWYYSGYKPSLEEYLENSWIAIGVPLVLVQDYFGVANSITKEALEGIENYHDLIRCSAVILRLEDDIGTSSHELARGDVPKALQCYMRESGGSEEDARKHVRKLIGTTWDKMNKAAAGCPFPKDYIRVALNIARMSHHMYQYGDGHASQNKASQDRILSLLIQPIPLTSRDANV

Assay [3] concerns the target T3, PhGES (Pelargonium graveolens, UniProt A0A2S1JKY6).
T3 construct: gene GES; full-length (plastid-targeted); E. coli Rosetta (DE3) pLysS; 'Grasse' form lacks the TAL triplet of 'Bourbon' and 'Egypt'
T3 sequence (A0A2S1JKY6 1-555): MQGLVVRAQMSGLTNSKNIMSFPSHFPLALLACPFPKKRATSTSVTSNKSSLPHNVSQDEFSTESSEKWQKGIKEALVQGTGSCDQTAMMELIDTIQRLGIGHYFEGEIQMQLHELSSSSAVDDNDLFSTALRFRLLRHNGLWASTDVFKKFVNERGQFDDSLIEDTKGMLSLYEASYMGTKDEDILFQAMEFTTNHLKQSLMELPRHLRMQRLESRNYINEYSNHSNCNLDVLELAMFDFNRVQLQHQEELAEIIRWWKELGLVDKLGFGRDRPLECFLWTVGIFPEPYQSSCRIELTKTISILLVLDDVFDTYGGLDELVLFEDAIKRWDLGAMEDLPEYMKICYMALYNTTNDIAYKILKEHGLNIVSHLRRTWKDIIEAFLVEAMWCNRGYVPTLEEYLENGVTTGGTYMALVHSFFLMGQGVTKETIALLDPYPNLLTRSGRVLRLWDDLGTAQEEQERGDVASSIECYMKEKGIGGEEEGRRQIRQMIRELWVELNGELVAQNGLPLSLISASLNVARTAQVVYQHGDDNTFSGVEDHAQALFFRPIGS

As for `CC(C)=CCC/C(C)=C/CC/C(C)=C/COP(=O)(O)OP(=O)(O)O` [FPP], in assay [1] (50 µM), the GC-MS product analysis result is “PhEDS (MF503882) produced 10-epi-γ-eudesmol and α-eudesmol as major and minor products, respectively, after incubation with FPP”.
With `C=CC(=C)CCC=C(C)C` [β-myrcene], the GC-MS product analysis result in assay [2] (major product from GPP) is listed as “PhMYRS (MF503884) used GPP to produce β-myrcene as major compound”.
Regarding `CC(C)=CCC/C(C)=C/CO` [geraniol], in assay [3] (sole product from GPP), the GC-MS product analysis entry is “PhGES (MF503883) produced uniquely geraniol in presence of GPP as a substrate”.
With `CC(C)=CCC/C(C)=C/COP(=O)(O)OP(=O)(O)O` [GPP], the values for the GC-MS product analysis result in assay [2] (50 µM) and in assay [3] (50 µM) were “PhMYRS (MF503884) used GPP to produce β-myrcene as major compound” and “PhGES (MF503883) produced uniquely geraniol in presence of GPP as a substrate”, respectively.
Regarding `CC1=C2CC(C(C)(C)O)CCC2(C)CCC1` (stereo not drawn) [10-epi-γ-eudesmol], in assay [1] (major product from FPP), the GC-MS product analysis entry is “PhEDS (MF503882) produced 10-epi-γ-eudesmol and α-eudesmol as major and minor products”.
